pIC50: −log10 of the molar value. “And” between values parts separate entries of the source, which are not always exact repeats. Identical values can stand only once.
Legend:
LC3 flux in U2OS cells = experiment: Autophagic flux: LC3-II western blot with/without BafA1 in U2OS cells; format: cell-based, human; settings: U2OS
Procedure: (§1) U2OS (human osteosarcoma-derived) cells were cultured in DMEM supplemented with 10% foetal bovine serum, 100 U/ml Penicillin and […] L-glutamine. Cells were pre-treated with compounds at the indicated concentrations for 60 min followed by treatments with EBSS or EBSS combined with/without 50 nM Bafilomycin A1 (Enzo Life Sciences) for a further 60 or 120 min with/without inhibitors, as indicated in figures/figure legends.
(§2) Prior to western blot analysis, cells were washed twice in ice-cold PBS and lysed in buffer containing 50 mM HEPES pH 7.4, 150 mM NaCl, 1 mM EDTA, 10% Glycerol, 0.5% NP-40, 1 mM DTT, supplemented with phosphatase inhibitors (1.15 mM sodium molybdate, 4 mM sodium tartrate, 0.01 M β-glycerophosphate, 1 mM sodium fluoride, 1 mM sodium orthovanadate) and protease inhibitor tablets (Roche) according to manufacturer's instructions. Lysates were then spun at 20 000×g for 10 min and the supernatant was collected for protein content estimation using Protein Assay Dye Reagent Concentrate from Bio-Rad. 4× LDS was added to the lysate (final dilution 1×) prior to heating at 95°C for 5 min. Electrophoresis and transfer to PVDF membranes was performed using standard protocols. Membranes were blocked in 5% milk in TBS-T prior to incubation with primary antibodies (in 5% milk/TBS-T for ULK1, pS555 (human S556) ULK1, pS757 (human S758) ULK1, pS318-ATG13, ATG13, and in 5% BSA/TBS-T for LC3 and α-Tubulin) under rotation overnight at 4°C followed by washes in TBS-T and incubation with HRP-conjugated secondary antibodies (in 5% milk in TBS-T) for 60 min at room temperature. Membranes were washed in TBS-T before application of ECL reagent (GE healthcare) and development on hypersensitive X-ray films (GE healthcare) (Figures 5A, 6C and Supplementary Figure S7C) or using BIO-RAD Clarity^TM western blotting substrate (Supplementary Figure S6C and Supplementary Figure S7A) and a BIO-RAD ChemiDoc^TM imaging system.
(§3) Quantification of western blots was performed with band densitometry analysis using ImageJ. Quantification of LC3 puncta was performed using either the ITCN plugging in ImageJ or Volocity. One-way or two-way Anova (using GraphPad Prism) followed by a post-hoc test, was used for statistical analysis of western blots and immunofluorescence as indicated in figure legends.

AMPK α1β2ɣ1 = AMPK α1β2ɣ1 (Homo sapiens, UniProt O43741+P54619+Q13131); experiment: AMPK ADP Hunter Plus kinase activity assay
Sequence of AMPK α1β2ɣ1 (Q13131 whole entry): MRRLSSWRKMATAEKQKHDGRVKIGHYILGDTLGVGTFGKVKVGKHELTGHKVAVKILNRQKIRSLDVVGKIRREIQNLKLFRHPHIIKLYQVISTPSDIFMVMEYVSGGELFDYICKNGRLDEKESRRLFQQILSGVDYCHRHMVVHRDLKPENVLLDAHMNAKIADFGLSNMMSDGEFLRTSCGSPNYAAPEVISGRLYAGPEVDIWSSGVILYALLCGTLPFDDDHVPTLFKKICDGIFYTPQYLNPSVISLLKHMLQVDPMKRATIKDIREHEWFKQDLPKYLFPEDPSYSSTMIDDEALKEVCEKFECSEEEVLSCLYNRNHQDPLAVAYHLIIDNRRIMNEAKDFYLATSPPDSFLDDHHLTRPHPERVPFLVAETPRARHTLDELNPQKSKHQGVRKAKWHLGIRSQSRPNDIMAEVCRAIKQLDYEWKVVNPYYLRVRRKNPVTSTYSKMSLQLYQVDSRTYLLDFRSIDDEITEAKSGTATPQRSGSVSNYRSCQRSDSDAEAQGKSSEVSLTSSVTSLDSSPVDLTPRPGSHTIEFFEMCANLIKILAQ
Sequence of AMPK α1β2ɣ1 (O43741 whole entry partner): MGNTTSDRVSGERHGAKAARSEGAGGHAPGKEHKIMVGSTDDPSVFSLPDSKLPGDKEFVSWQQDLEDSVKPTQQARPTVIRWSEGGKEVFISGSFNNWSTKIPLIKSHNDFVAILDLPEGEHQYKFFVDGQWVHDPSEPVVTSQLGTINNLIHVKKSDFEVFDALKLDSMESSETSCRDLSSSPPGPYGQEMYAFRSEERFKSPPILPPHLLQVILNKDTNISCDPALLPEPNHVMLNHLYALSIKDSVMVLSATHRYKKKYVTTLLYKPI
Sequence of AMPK α1β2ɣ1 (P54619 whole entry partner): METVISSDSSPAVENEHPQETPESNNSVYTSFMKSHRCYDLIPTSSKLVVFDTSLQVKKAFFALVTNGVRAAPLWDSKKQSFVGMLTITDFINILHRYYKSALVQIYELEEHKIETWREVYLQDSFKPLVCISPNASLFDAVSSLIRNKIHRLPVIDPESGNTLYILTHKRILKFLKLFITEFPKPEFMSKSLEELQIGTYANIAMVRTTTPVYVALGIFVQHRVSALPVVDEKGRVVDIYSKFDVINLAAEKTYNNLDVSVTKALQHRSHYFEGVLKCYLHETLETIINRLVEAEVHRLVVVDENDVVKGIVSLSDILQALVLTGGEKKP

PI3Kδ = tested on: PI3Kδ; set-up: method as in ChEMBL database; settings: statement in discussion on published selectivity; ref ChEMBL database; cited from earlier work
mTOR (ULK1 pS758) = experiment: Upstream mTOR activity: ULK1 pS758 western blot in U2OS cells; format: cell-based, human; settings: 100 nM (VPS34-IN1 500 nM), 60 min pre-treatment, ± EBSS 60 min
Procedure: as §1
as §2, with “Lysates” for “Prior to western blot analysis, cells were washed twice in ice-cold PBS and lysed in buffer containing 50 mM HEPES pH 7.4, 150 mM NaCl, 1 mM EDTA, 10% Glycerol, 0.5% NP-40, 1 mM DTT, supplemented with phosphatase inhibitors (1.15 mM sodium molybdate, 4 mM sodium tartrate, 0.01 M β-glycerophosphate, 1 mM sodium fluoride, 1 mM sodium orthovanadate) and protease inhibitor tablets (Roche) according to manufacturer's instructions. Lysates”
as §3

AMPK (ULK1 pS556) = experiment: Upstream AMPK activity: ULK1 pS556 western blot in U2OS cells; format: cell-based, human; settings: 100 nM (VPS34-IN1 500 nM), 60 min pre-treatment, ± EBSS 60 min
Procedure: as §1
as §2, with “Lysates” for “Prior to western blot analysis, cells were washed twice in ice-cold PBS and lysed in buffer containing 50 mM HEPES pH 7.4, 150 mM NaCl, 1 mM EDTA, 10% Glycerol, 0.5% NP-40, 1 mM DTT, supplemented with phosphatase inhibitors (1.15 mM sodium molybdate, 4 mM sodium tartrate, 0.01 M β-glycerophosphate, 1 mM sodium fluoride, 1 mM sodium orthovanadate) and protease inhibitor tablets (Roche) according to manufacturer's instructions. Lysates”
as §3

ULK1 = target: T1, ULK1 (Homo sapiens, UniProt O75385); experiment: ULK1 ADP Hunter Plus kinase activity assay; format: biochemical; settings: resynthesized samples; mean potency in parenthesis, n = 5; read-out: IC50 against ULK1 (converted)
T1 construct: purchased MRC PPU Reagents and Services, Dundee, Scotland
T1 sequence (O75385 1-1050): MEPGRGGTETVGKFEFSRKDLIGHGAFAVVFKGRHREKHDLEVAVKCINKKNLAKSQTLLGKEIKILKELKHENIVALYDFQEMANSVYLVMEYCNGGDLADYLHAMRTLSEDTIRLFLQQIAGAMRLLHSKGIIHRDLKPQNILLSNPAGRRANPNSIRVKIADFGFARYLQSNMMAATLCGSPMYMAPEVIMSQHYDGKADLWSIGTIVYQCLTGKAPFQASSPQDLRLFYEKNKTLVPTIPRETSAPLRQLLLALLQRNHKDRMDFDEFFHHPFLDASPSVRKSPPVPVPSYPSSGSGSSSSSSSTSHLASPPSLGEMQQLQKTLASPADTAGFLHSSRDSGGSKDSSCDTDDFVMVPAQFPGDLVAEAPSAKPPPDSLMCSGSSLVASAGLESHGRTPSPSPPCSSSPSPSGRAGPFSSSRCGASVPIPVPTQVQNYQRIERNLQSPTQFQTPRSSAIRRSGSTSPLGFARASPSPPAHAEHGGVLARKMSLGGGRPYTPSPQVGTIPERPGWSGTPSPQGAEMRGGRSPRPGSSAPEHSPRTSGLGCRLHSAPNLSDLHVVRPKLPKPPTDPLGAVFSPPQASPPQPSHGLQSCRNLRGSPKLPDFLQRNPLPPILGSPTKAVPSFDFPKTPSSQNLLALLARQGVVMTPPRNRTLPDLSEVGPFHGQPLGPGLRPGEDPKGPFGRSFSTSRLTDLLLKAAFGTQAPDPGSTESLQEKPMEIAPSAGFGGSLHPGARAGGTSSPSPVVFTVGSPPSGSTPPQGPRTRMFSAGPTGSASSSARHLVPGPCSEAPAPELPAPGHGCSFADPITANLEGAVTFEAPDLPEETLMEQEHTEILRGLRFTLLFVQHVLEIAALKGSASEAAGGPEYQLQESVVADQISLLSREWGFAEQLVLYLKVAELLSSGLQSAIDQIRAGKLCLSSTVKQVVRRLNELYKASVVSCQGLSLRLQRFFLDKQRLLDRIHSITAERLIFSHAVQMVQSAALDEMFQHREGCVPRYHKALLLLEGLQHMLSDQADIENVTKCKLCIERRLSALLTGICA

VPS34 (WIPI2 puncta) = experiment: Cellular VPS34 activity: WIPI2 puncta immunofluorescence in U2OS cells; format: cell-based, human
Procedure: as §1
Prior to immunofluorescence, cells were grown on glass coverslips to ∼60% confluency. Cells were washed in PBS prior to fixation with 3.7% PFA/10 mM HEPES pH 7.0 at room temperature for 20 min. PFA was quenched using DMEM/10 mM HEPES pH 7.0/0.02% NaN3, followed by permeabilisation with 0.2% NP-40 in PBS for 5 min, followed by blocking with 1% BSA/PBS/0.02% NaN3. Primary antibody incubation was at room temperature for 60 min, followed by two 10-minute washes, then fluorescent secondary antibody incubation for 30 min and further washes (all in blocking buffer) before mounting onto glass slides. A wide field Nikon TS microscope was used for image capturing.
as §3

VPS34 = VPS34 (Homo sapiens, UniProt Q8NEB9); experiment: VPS34 ADP Hunter Plus kinase activity assay
Sequence of VPS34 (Q8NEB9 whole entry): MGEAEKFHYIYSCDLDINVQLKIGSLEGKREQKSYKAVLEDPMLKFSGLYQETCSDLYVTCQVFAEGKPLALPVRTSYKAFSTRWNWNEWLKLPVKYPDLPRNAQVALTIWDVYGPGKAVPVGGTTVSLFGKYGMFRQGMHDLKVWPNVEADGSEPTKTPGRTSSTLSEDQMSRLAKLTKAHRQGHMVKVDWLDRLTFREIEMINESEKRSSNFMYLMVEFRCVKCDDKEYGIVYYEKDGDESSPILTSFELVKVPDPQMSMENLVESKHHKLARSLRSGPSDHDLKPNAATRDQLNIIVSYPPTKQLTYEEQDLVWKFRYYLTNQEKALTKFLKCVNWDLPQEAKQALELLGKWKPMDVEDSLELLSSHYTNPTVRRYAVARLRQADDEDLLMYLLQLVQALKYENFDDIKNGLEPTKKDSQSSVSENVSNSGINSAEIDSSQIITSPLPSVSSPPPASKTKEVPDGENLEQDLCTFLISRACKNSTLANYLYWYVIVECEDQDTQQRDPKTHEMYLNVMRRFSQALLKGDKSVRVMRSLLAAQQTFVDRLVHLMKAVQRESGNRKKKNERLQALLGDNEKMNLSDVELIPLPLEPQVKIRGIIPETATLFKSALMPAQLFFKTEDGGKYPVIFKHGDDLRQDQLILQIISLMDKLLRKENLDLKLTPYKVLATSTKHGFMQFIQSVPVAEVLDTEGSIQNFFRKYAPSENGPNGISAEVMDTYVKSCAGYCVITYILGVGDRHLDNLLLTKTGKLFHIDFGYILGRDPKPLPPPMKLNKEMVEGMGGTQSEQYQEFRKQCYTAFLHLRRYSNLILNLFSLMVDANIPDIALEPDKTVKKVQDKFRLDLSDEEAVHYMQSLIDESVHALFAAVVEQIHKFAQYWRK

SMILES: O=c1cc(N2CCOCC2)nc2n(Cc3cccc(Cl)c3Cl)c(C3CC3)nn12 [GSK2358994A]
- Effect on LC3 flux under EBSS starvation (LC3 flux in U2OS cells; 100 nM, 60 min pre-treatment then 60 min EBSS): significantly reduced LC3 flux
- Concentration blocking EBSS-induced autophagy (LC3) flux (LC3 flux in U2OS cells; EBSS + 50 nM BafA1, as low as, greater effect at 100 nM): ≤ 10 nM
- pIC50 (AMPK α1β2ɣ1): < 4.00
- Potency against PI3Kδ (PI3Kδ): potent against PI3Kδ
- Effect on mTORC1 activity (pS758 ULK1) (mTOR (ULK1 pS758)): unaffected
- Effect on AMPK activity (pS556 ULK1) (AMPK (ULK1 pS556)): unaffected
- IC50 (ULK1): > 100000 nM
- Effect on EBSS-induced WIPI2 puncta (VPS34 (WIPI2 puncta); 100 nM, 60 min pre-treatment then 60 min EBSS, vs EBSS only): significantly reduced
- Concentration working in cells (WIPI2 puncta reduction) (VPS34 (WIPI2 puncta); EBSS, as low as): ≤ 100 nM
- pIC50 (VPS34; IC50 against VPS34, resynthesized samples, mean potency in parenthesis, n = 5): 8.07 and 8.05
- pIC50 (VPS34; pIC50 against VPS34, original PKIS samples, concentration-dependent retest of screen hits): > 6.00
- pIC50 (VPS34; pIC50 against VPS34, resynthesized samples, 50 µM ATP (KM app), mean ± SD, n = 5): 8.07
- Mechanism of inhibition of VPS34 with respect to ATP (VPS34; varying ATP below 200 µM, Michaelis–Menten and Lineweaver–Burk plots): primarily ATP competitive inhibition
- Mechanism of inhibition of VPS34 with respect to PI:PS (VPS34; varying PI:PS below 12 µM): clear non-competitive inhibition
